{"source": "paper PMC2788236", "about": "(The Journal of infectious diseases, 2009)", "key": {"[1]": {"system": "western equine encephalitis virus replicon", "test": "microbe, parasite or virus in culture", "type": "cell-based"}, "Fort Morgan virus (FMV) [2]": {"system": "Fort Morgan virus (FMV)", "type": "cell-based"}, "Fort Morgan virus (FMV) [3]": {"system": "Fort Morgan virus (FMV)"}, "Fort Morgan virus (FMV) [4]": {"system": "Fort Morgan virus (FMV)", "test": "microbe, parasite or virus in culture", "conditions": "BE(2)-C, 48 h, read-out: cell viability of FMV-infected cells"}, "Sindbis virus (SINV)": {"system": "Sindbis virus (SINV)", "test": "microbe, parasite or virus in culture", "conditions": "BE(2)-C, 48 h, read-out: cell viability of SINV-infected cells"}}}
{"smiles": "O=C(NCc1ccccc1)C1CCN(C(=O)c2cc3sccc3n2Cc2ccc(F)cc2)CC1", "note": "[CCG32088]", "values": [{"measurement": "IC50, dose-response analysis (SAR, figure 4)", "setting": "[1]", "value": "submicromolar"}]}
{"smiles": "O=C(NCc1ccco1)C1CCN(C(=O)c2cc3sccc3n2Cc2ccc(F)cc2)CC1", "note": "[CCG32091, 1-({4-[(4-fluorophenyl)methyl]-4H-thieno[3,2-b]pyrrol-5-yl}-carbonyl)-N-(furan-2-ylmethyl)piperidine-4-carboxamide]", "values": [{"measurement": "selectivity index (CC50/IC50 ratio)", "setting": "[1]", "value": "> 20"}, {"measurement": "suppression of infectious FMV production", "setting": "Fort Morgan virus (FMV) [2]", "value": "> 90", "unit": "%"}, {"measurement": "concentration effectively suppressing FMV-induced cytopathic effect (as low as)", "setting": "Fort Morgan virus (FMV) [3]", "value": "≤ 3", "unit": "µmol/L"}, {"measurement": "viability at 12.5 µM", "setting": "Fort Morgan virus (FMV) [4]", "value": 70, "unit": "%"}, {"measurement": "viability at 12.5 µM", "setting": "Sindbis virus (SINV)", "value": 50, "unit": "%"}]}
{"smiles": "O=C(NCc1ccco1)C1CCN(C(=O)c2cc3sccc3n2Cc2ccc(Cl)cc2)CC1", "note": "[CCG32095]", "values": [{"measurement": "IC50, dose-response analysis (SAR, figure 4)", "setting": "[1]", "value": "submicromolar"}]}
{"smiles": "COc1c(C)c2c(c(O)c1C/C=C(\\C)CCC(=O)O)C(=O)OC2", "note": "[mycophenolic acid]", "values": [{"measurement": "suppression of fLUC expression", "setting": "[1]", "value": "~ 80%"}]}
{"smiles": "NC(=O)c1ncn([C@@H]2O[C@H](CO)[C@@H](O)[C@H]2O)n1", "note": "[ribavirin]", "values": [{"measurement": "selectivity index (CC50/IC50 ratio)", "setting": "[1]", "value": 19}, {"measurement": "suppression of fLUC expression", "setting": "[1]", "value": "~ 80%"}, {"measurement": "IC50", "setting": "[1]; Western equine encephalitis virus, BSR-T7/5, read-out: IC50, inhibition of fLUC activity", "value": 16, "unit": "µM"}]}
